{"source": "ChEMBL document CHEMBL4765421", "about": "“Synthesis of natural 3'-Prenylchalconaringenin and biological evaluation of ameliorating non-alcoholic fatty liver disease and metabolic syndrome” (Eur J Med Chem, 2020)", "key": {"Mus musculus [1]": {"tested_on": "Mus musculus", "assay": "In vivo effect on PPAR signaling in tyloxapol-induced Kunming mouse model of hyperlipidemia assessed as increase in PPARalpha expression in liver at 50 to 100 mg/kg, po measured after 24 hrs by Western blot analysis", "assay_type": "functional, organism-based", "conditions": "dose 50-100 mg/kg"}, "Mus musculus [2]": {"tested_on": "Mus musculus", "assay": "Hypolipidemic activity in tyloxapol-induced Kunming mouse model of hyperlipidemia assessed as reduction in serum triglyceride level administered orally measured after 24 hrs", "assay_type": "functional, organism-based"}, "HepG2 [3]": {"tested_on": "HepG2", "assay": "Hypolipidemic activity in oleic, palmitic, linoleic and arachidonic acid 29:47:18:6 (v/v)-induced hyperlipidemia in human HepG2 cells assessed as reduction in lipid content at 20 uM by Oil Red O staining based assay relative to control", "assay_type": "functional", "design": "scale not given: the % may be the effect or the level left"}, "Mus musculus [4]": {"tested_on": "Mus musculus", "assay": "In vivo induction of AMPK in tyloxapol-induced Kunming mouse model of hyperlipidemia assessed as increase in AMPKalpha phosphorylation in white adipose tissue at 50 to 100 mg/kg, po measured after 24 hrs by Western blot analysis", "assay_type": "functional, organism-based", "conditions": "dose 50-100 mg/kg"}, "Mus musculus [5]": {"tested_on": "Mus musculus", "assay": "Hypolipidemic activity in tyloxapol-induced Kunming mouse model of hyperlipidemia assessed as kidney index at 100 mg/kg, po measured after 24 hrs (reference value: 11.20 +/- 0.58)", "assay_type": "functional"}, "Mus musculus [6]": {"tested_on": "Mus musculus", "assay": "Hypolipidemic activity in tyloxapol-induced Kunming mouse model of hyperlipidemia assessed as reduction in liver ALT level administered orally measured after 24 hrs", "assay_type": "functional, organism-based"}, "3T3-L1 [7]": {"tested_on": "3T3-L1", "assay": "Activation of AMPK in mouse 3T3-L1 matured adipocytes assessed as increase in ACC phosphorylation at 1 uM by Western blot analysis relative to control", "assay_type": "cell-based", "conditions": "filed as activator"}, "Mus musculus [8]": {"tested_on": "Mus musculus", "assay": "Hypolipidemic activity in tyloxapol-induced Kunming mouse model of hyperlipidemia assessed as epididymis white adipose tissue index at 50 mg/kg, po measured after 24 hrs (reference value: 23.43 +/- 3.10)", "assay_type": "functional"}, "Mus musculus [9]": {"tested_on": "Mus musculus", "assay": "Hypolipidemic activity in tyloxapol-induced Kunming mouse model of hyperlipidemia assessed as reduction in serum IL6 level at 50 to 100 mg/kg, po measured after 24 hrs", "assay_type": "functional, organism-based", "conditions": "dose 50-100 mg/kg"}, "Mus musculus [10]": {"tested_on": "Mus musculus", "assay": "In vivo induction of AMPK in tyloxapol-induced Kunming mouse model of hyperlipidemia assessed as increase in AKT phosphorylation in white adipose tissue at 50 to 100 mg/kg, po measured after 24 hrs by Western blot analysis", "assay_type": "functional, organism-based", "conditions": "dose 50-100 mg/kg"}, "3T3-L1 [11]": {"tested_on": "3T3-L1", "assay": "Hypolipidemic activity in mouse 3T3-L1 mature adipocytes assessed as reduction in lipid content at 5 uM by Oil Red O staining based assay relative to control", "assay_type": "functional", "design": "scale not given: the % may be the effect or the level left"}, "3T3-L1 [12]": {"tested_on": "3T3-L1", "assay": "Hypolipidemic activity in mouse 3T3-L1 mature adipocytes assessed as reduction in lipid content at 1 uM by Oil Red O staining based assay relative to control", "assay_type": "functional", "design": "scale not given: the % may be the effect or the level left"}, "Mus musculus [13]": {"tested_on": "Mus musculus", "assay": "Hypolipidemic activity in tyloxapol-induced Kunming mouse model of hyperlipidemia assessed as spleen index at 100 mg/kg, po measured after 24 hrs (reference value: 3.87 +/- 0.05)", "assay_type": "functional"}, "Mus musculus [14]": {"tested_on": "Mus musculus", "assay": "Hypolipidemic activity in tyloxapol-induced Kunming mouse model of hyperlipidemia assessed as kidney index at 50 mg/kg, po measured after 24 hrs (reference value: 11.20 +/- 0.58)", "assay_type": "functional"}, "Mus musculus [15]": {"tested_on": "Mus musculus", "assay": "Hypolipidemic activity in tyloxapol-induced Kunming mouse model of hyperlipidemia assessed as reduction in liver LDL-C level administered orally measured after 24 hrs", "assay_type": "functional, organism-based"}, "Mus musculus [16]": {"tested_on": "Mus musculus", "assay": "Hypolipidemic activity in tyloxapol-induced Kunming mouse model of hyperlipidemia assessed as reduction in liver AST level administered orally measured after 24 hrs", "assay_type": "functional, organism-based"}, "Mus musculus [17]": {"tested_on": "Mus musculus", "assay": "Hypolipidemic activity in tyloxapol-induced Kunming mouse model of hyperlipidemia assessed as reduction in serum LDL level administered orally measured after 24 hrs", "assay_type": "functional, organism-based"}, "Mus musculus [18]": {"tested_on": "Mus musculus", "assay": "In vivo induction of AMPK in tyloxapol-induced Kunming mouse model of hyperlipidemia assessed as increase in CPT-1A phosphorylation in white adipose tissue at 50 to 100 mg/kg, po measured after 24 hrs by Western blot analysis", "assay_type": "functional, organism-based", "conditions": "dose 50-100 mg/kg"}, "Mus musculus [19]": {"tested_on": "Mus musculus", "assay": "In vivo induction of AMPK in tyloxapol-induced Kunming mouse model of hyperlipidemia assessed as increase in CPT-1A phosphorylation in liver at 50 to 100 mg/kg, po measured after 24 hrs by Western blot analysis", "assay_type": "functional, organism-based", "conditions": "dose 50-100 mg/kg"}, "Mus musculus [20]": {"tested_on": "Mus musculus", "assay": "In vivo effect on PPAR signaling in tyloxapol-induced Kunming mouse model of hyperlipidemia assessed as decrease in PPARbeta expression in white adipose tissue at 50 to 100 mg/kg, po measured after 24 hrs by Western blot analysis", "assay_type": "functional, organism-based", "conditions": "dose 50-100 mg/kg"}, "Mus musculus [21]": {"tested_on": "Mus musculus", "assay": "Hypolipidemic activity in tyloxapol-induced Kunming mouse model of hyperlipidemia assessed as reduction in liver MPO level at 50 to 100 mg/kg, po measured after 24 hrs", "assay_type": "functional, organism-based", "conditions": "dose 50-100 mg/kg"}, "Mus musculus [22]": {"tested_on": "Mus musculus", "assay": "In vivo effect on PPAR signaling in tyloxapol-induced Kunming mouse model of hyperlipidemia assessed as decrease in PPARgamma expression in white adipose tissue at 50 to 100 mg/kg, po measured after 24 hrs by Western blot analysis", "assay_type": "functional, organism-based", "conditions": "dose 50-100 mg/kg"}, "Mus musculus [23]": {"tested_on": "Mus musculus", "assay": "Hypolipidemic activity in tyloxapol-induced Kunming mouse model of hyperlipidemia assessed as perirenal white adipose tissue index at 50 mg/kg, po measured after 24 hrs (reference value: 18.14 +/- 1.44)", "assay_type": "functional"}, "3T3-L1 [24]": {"tested_on": "3T3-L1", "assay": "Hypolipidemic activity in mouse 3T3-L1 mature adipocytes assessed as reduction in lipid content at 15 uM by Oil Red O staining based assay relative to control", "assay_type": "functional", "design": "scale not given: the % may be the effect or the level left"}, "Mus musculus [25]": {"tested_on": "Mus musculus", "assay": "Hypolipidemic activity in tyloxapol-induced Kunming mouse model of hyperlipidemia assessed as reduction in liver total cholesterol level administered orally measured after 24 hrs", "assay_type": "functional, organism-based"}, "Mus musculus [26]": {"tested_on": "Mus musculus", "assay": "Hypolipidemic activity in tyloxapol-induced Kunming mouse model of hyperlipidemia assessed as liver index at 50 mg/kg, po measured after 24 hrs (reference value: 65.00 +/- 0.87)", "assay_type": "functional"}, "3T3-L1 [27]": {"tested_on": "3T3-L1", "assay": "Activation of AMPK in mouse 3T3-L1 matured adipocytes assessed as increase in AMPK phosphorylation at 1 uM by Western blot analysis relative to control", "assay_type": "cell-based", "conditions": "filed as activator"}, "Mus musculus [28]": {"tested_on": "Mus musculus", "assay": "In vivo effect on PPAR signaling in tyloxapol-induced Kunming mouse model of hyperlipidemia assessed as increase in PPARbeta expression in liver at 50 to 100 mg/kg, po measured after 24 hrs by Western blot analysis", "assay_type": "functional, organism-based", "conditions": "dose 50-100 mg/kg"}, "Mus musculus [29]": {"tested_on": "Mus musculus", "assay": "In vivo effect on PPAR signaling in tyloxapol-induced Kunming mouse model of hyperlipidemia assessed as increase in mTOR phosphorylation in white adipose tissue administered orally measured after 24 hrs by Western blot analysis", "assay_type": "functional, organism-based"}, "Mus musculus [30]": {"tested_on": "Mus musculus", "assay": "Hypolipidemic activity in tyloxapol-induced Kunming mouse model of hyperlipidemia assessed as spleen index at 50 mg/kg, po measured after 24 hrs (reference value: 3.87 +/- 0.05)", "assay_type": "functional"}, "HepG2 [31]": {"tested_on": "HepG2", "assay": "Hypolipidemic activity in oleic, palmitic, linoleic and arachidonic acid 29:47:18:6 (v/v)-induced hyperlipidemia in human HepG2 cells assessed as reduction in triglyceride content", "assay_type": "functional, cell-based"}, "Mus musculus [32]": {"tested_on": "Mus musculus", "assay": "Hypolipidemic activity in tyloxapol-induced Kunming mouse model of hyperlipidemia assessed as reduction in liver fibrosis at 50 to 100 mg/kg, po measured after 24 hrs by Masson's trichrome staining based assay", "assay_type": "functional, organism-based", "conditions": "dose 50-100 mg/kg"}, "Mus musculus [33]": {"tested_on": "Mus musculus", "assay": "In vivo induction of AMPK in tyloxapol-induced Kunming mouse model of hyperlipidemia assessed as decrease in FAS expression in white adipose tissue at 50 to 100 mg/kg, po measured after 24 hrs by Western blot analysis", "assay_type": "functional, organism-based", "conditions": "dose 50-100 mg/kg"}, "3T3-L1 [34]": {"tested_on": "3T3-L1", "assay": "Hypolipidemic activity in mouse 3T3-L1 mature adipocytes assessed as reduction in triglyceride content", "assay_type": "functional, cell-based"}}, "note": "Active and inactive are the calls of the source. The calls are words filed in the database; no cut-off is given here."}
{"smiles": "CC(C)=CCC/C(C)=C/Cc1c(O)cc(O)c(C(=O)/C=C/c2ccc(O)cc2)c1O", "values": [{"measurement": "Activity", "setting": "Mus musculus [1]", "result": "Active"}, {"measurement": "Activity", "setting": "Mus musculus [2]", "result": "Dose-dependent effect"}, {"measurement": "Activity", "setting": "HepG2 [3]", "result": 66.31, "unit": "%"}, {"measurement": "Activity", "setting": "Mus musculus [4]", "result": "Active"}, {"measurement": "Activity_index", "setting": "Mus musculus [5]", "result": 9.29}, {"measurement": "Activity", "setting": "Mus musculus [6]", "result": "Dose-dependent effect"}, {"measurement": "Activity", "setting": "3T3-L1 [7]", "result": 260, "unit": "%"}, {"measurement": "Activity_index", "setting": "Mus musculus [8]", "result": 14.85}, {"measurement": "Activity", "setting": "Mus musculus [9]", "result": "Active"}, {"measurement": "Activity", "setting": "Mus musculus [10]", "result": "Active"}, {"measurement": "Activity", "setting": "3T3-L1 [11]", "result": 71.33, "unit": "%"}, {"measurement": "Activity", "setting": "3T3-L1 [12]", "result": 39.16, "unit": "%"}, {"measurement": "Activity_index", "setting": "Mus musculus [13]", "result": 2.62}, {"measurement": "Activity_index", "setting": "Mus musculus [14]", "result": 9.46}, {"measurement": "Activity", "setting": "Mus musculus [15]", "result": "Dose-dependent effect"}, {"measurement": "Activity", "setting": "Mus musculus [16]", "result": "Dose-dependent effect"}, {"measurement": "Activity", "setting": "Mus musculus [17]", "result": "Dose-dependent effect"}, {"measurement": "Activity", "setting": "Mus musculus [18]", "result": "Active"}, {"measurement": "Activity", "setting": "Mus musculus [19]", "result": "Active"}, {"measurement": "Activity", "setting": "Mus musculus [20]", "result": "Active"}, {"measurement": "Activity", "setting": "Mus musculus [21]", "result": "Active"}, {"measurement": "Activity", "setting": "Mus musculus [22]", "result": "Active"}, {"measurement": "Activity_index", "setting": "Mus musculus [23]", "result": 9.52}, {"measurement": "Activity", "setting": "3T3-L1 [24]", "result": 72.12, "unit": "%"}, {"measurement": "Activity", "setting": "Mus musculus [25]", "result": "Dose-dependent effect"}, {"measurement": "Activity_index", "setting": "Mus musculus [26]", "result": 55.64}, {"measurement": "Activity", "setting": "3T3-L1 [27]", "result": 49, "unit": "%"}, {"measurement": "Activity", "setting": "Mus musculus [28]", "result": "Active"}, {"measurement": "Activity", "setting": "Mus musculus [29]", "result": "Dose-dependent effect"}, {"measurement": "Activity_index", "setting": "Mus musculus [30]", "result": 2.8}, {"measurement": "Activity", "setting": "HepG2 [31]", "result": "Dose-dependent effect"}, {"measurement": "Activity", "setting": "Mus musculus [32]", "result": "Active"}, {"measurement": "Activity", "setting": "Mus musculus [33]", "result": "Active"}, {"measurement": "Activity", "setting": "3T3-L1 [34]", "result": "Dose-dependent effect"}]}
